Laboratory results: patent publication US6506745B1, “Medicinal compositions for treatment of atrial fibrillation” (Noboru Kaneko, priority 1998, dated 2003)

Assays:
right atrial muscle = assay: Active potential duration (APD90) of isolated right atrial muscle under electrical stimulation; assay type: cell-based, beagle; conditions: 90 minutes after adding
Protocol: A beagle was used in the experimental test. Its right atrial. muscle was surgically extracted, and a sample was fixed with pins within an experimental vessel which is perfused with Tyrode liquid (10 ml/min). Using an electrical stimulator, the atrial muscle was stimulated by a voltage two times greater than that of generating an active potential, and rectangular waves having pulse. width of 2 msec in a frequency of 2 Hz, and the generated active potential was measured by a glass microelectrode inserted into the cells. Compound 1 was added into the experimental vessel with condensations of 0.3 μM and 1 μM. At 90 minutes before and after adding the compound, the sample was excited with various excitation frequencies, and each active potential was recorded to. determine the duration (90% recovery time; APD90).

[1] = tested on: atrial fibrillation induced by means of electrical stimulation; assay: Atrial fibrillation induced by electrical stimulation in chronically paced right atrium; assay type: in vivo, hybrid of a labrador and beagle
Text: In the experimental test, a hybrid of a labrador and beagle was used. An electrode for electrical excitation was embedded in the right atrium. From a week after the operation, the right atrium was subjected to a continuous pacing at an excitation frequency of 400 or 600 bpm by an external pacemaker. Further, for 31 day, the right atrium was subjected to a pacing giving a burst excitation (10 mA,50 Hz,1 sec) 5 days a week and several hours a day. Compound 1 was continuously injected into forearm vein (0.3mg/kg/min×2 min+0.03 mg/kg/min). At 20 minutes before and after administrating, the excitation current (50 Hz, 1 sec) was increased from 3 mA to 10 mA in increments of 0.5 mA to determine each atrial fibrillation threshold (AFT). Then, the atrial fibrillation duration (AF duration) and the interval (FF interval) of atrial fibrillation waves, which were generated by the excitation current of 10 mA, were measured. In FIG. 1, the mean value of the AF duration before administration was 35.1±9.0 sec, and the mean value after administration was 12.1±1.9 sec. In FIG. 2, the mean value of the FF interval before administration was 51.3±1.7 msec, and the mean value after administration was 61.7±1.8 msec.

What does the source list for COc1ccc2c(c1)CN(C(=O)CCN1CCC(Cc3ccccc3)CC1)CCS2 [Compound 1, 4-[3-(4-benzylpiperidine-1-yl)propionyl]-7-methoxy-2,3,4,5-tetrahydro-1,4-benzothiazepine]?
duration (APD90) change after addition (right atrial muscle; 0.3 μM, excitation frequency 0.67 Hz): 106.0 ± 2.01%; duration (APD90) change after addition (right atrial muscle; 0.3 μM, excitation frequency 1 Hz): 110.1 ± 2.75%; duration (APD90) change after addition (right atrial muscle; 0.3 μM, excitation frequency 2 Hz): 113.0 ± 1.48%; duration (APD90) change after addition (right atrial muscle; 0.3 μM, excitation frequency 3.33 Hz): 111.5 ± 10.52%; duration (APD90) change after addition (right atrial muscle; 1 μM, excitation frequency 0.67 Hz): 112.9 ± 6.47%; duration (APD90) change after addition (right atrial muscle; 1 μM, excitation frequency 1 Hz): 111.3 ± 5.34%; duration (APD90) change after addition (right atrial muscle; 1 μM, excitation frequency 2 Hz): 118.1 ± 2.88%; duration (APD90) change after addition (right atrial muscle; 1 μM, excitation frequency 3.33 Hz): 124.7 ± 9.40%; atrial fibrillation duration (AF duration), mean value after administration ([1]; i.v. 0.3 mg/kg/min x 2 min + 0.03 mg/kg/min, 20 minutes after administrating, excitation current 10 mA, before administration 35.1±9.0 sec): 12.1 ± 1.9 s; interval of atrial fibrillation waves (FF interval), mean value after administration ([1]; i.v. 0.3 mg/kg/min x 2 min + 0.03 mg/kg/min, 20 minutes after administrating, excitation current 10 mA, before administration 51.3±1.7 msec): 61.7 ± 1.8 ms; atrial fibrillation threshold (AFT) after administration ([1]; i.v. 0.3 mg/kg/min x 2 min + 0.03 mg/kg/min, 20 minutes after administrating, increased from 7 mA before): 10 mA; extension of FF interval after administration ([1]; i.v. infusion, excitation current 10 mA, FIG. 2): about 20%
